Experiments:
skin [1] = conditions: concentrations of 0.2%; clinical data from SEPPIC; cited from earlier work
skin [2] = conditions: topical use of 4% HQ or 5% Vitamin C; cited from earlier work
[3] = Solubility in non-aqueous skin-compatible solvents; conditions: neat solvent
skin [4] = conditions: cream containing 10% MAP; cited from earlier work
skin [5] = conditions: topical; cited from earlier work

## madecassoside
Skin [1]
  ability to reduce erythema (skin redness): desirable ability to reduce erythema

## Oc1ccc(O)cc1 [HQ, hydroquinone]
Skin [2]
  improvement: 93%
  side-effects: 68.7%

## CO[C@H]1CO[C@H]2[C@@H]1OC[C@H]2OC [Dimethyl isosorbide]
[3]
  ability of the solvent to solubilize ascorbic acid: very limited

## O=C1O[C@H]([C@@H](O)CO)C(O)=C1O [AA, L-ascorbic acid]
Skin [2]
  improvement: 62.5%

## O=C1O[C@H]([C@@H](O)CO)C([O-])=C1OP(=O)([O-])[O-].O=C1O[C@H]([C@@H](O)CO)C([O-])=C1OP(=O)([O-])[O-].[Mg+2].[Mg+2].[Mg+2] [MAP, magnesium ascorbyl phosphate]
Skin [4]
  brighten/lighten the appearance of the skin: effectively brighten/lighten

## CC(C)(CO)[C@@H](O)C(=O)NCCCO [Panthenol]
Skin [5]
  concentration at which inhibition of transepidermal water loss is apparent: ≥ 1%

— US12064503B2, “High-potency vitamin C and sugar alcohol topical formulations” (ICB (an ABC), LLC, priority 2020, dated 2024)
